# Where two headings read alike, the source gives them in different places.
# Columns and labels:
# [1] = Stability of the compounds in rat plasma (LC-MS validation); assay type: in vitro ADME
# Description: According to the “Guidelines for non-clinical pharmacokinetics of drugs” issued by Centre for Drug Evaluation, National Medical Products Administration, China ([Guidelines for non-clinical pharmacokinetics of drugs, 2014]), the LC-MS method was validated by linearity, limits of detection (LOD), limits of quantification (LOQ), precision, accuracy, extraction recovery, matrix effect and stability of the 6 compounds in rat plasma. In brief, blank rat plasma was obtained from the other six rats. The standard mixture solution containing the 6 compounds (with the concentration of 1 mg/ml for each) was diluted with […] to prepare a series of working solution containing the 6 compounds (concentration level: 20, 50, 100, 250, 500 ng/ml and 1, 2.5, 5, 10, 25, 50, 100, 125 150, 200 μg/ml) and IS (2.5μg/ml). For calibration curve, 10 μl of the series of working solution containing the IS (2.5μg/ml) was added into 100 μl of blank plasma. Finally, 15 data points (2, 5, 10, 25, 50, 100, 250, 500 ng/ml and 1, 2.5, 5, 10, 12.5 15, 20 μg/ml) were used in the calibration curve linearity. Calibration curves were plotted by weighted linear regression of the peak area ratio of analyte to the IS against the related nominal concentration of the analyte. LOD and LOQ were defined as the detectable concentration at which the ratio of signal to noise was about 3 and 10, respectively ([Huang et al., 2019]). […] The extraction recovery and matrix effect were also assessed at the above-mentioned three concentration levels for the 6 ingredients in the spiked plasma samples ([Huang et al., 2019]). Stability was examined under the condition of setting un-treated plasma samples at ambient temperature for 6 h, and extracted plasma samples in auto-sampler for 10 h, as well as setting plasma samples for three freeze-thaw cycles and at −80°C for 15 days ([Guidelines for non-clinical pharmacokinetics of drugs, 2014]).
# [2] = Multi-component PK in rats after i.v. administration of ASEP; assay type: in vivo, Sprague-Dawley rats; details: for ingredient concentration in rat plasma: PK time points 2.5, 5, 10, 15 and 20 min after single i.v. 3.52 ml/kg of 5 times concentrated ASEP, preliminary examination; for AUC0-∞ / AUC(0-t) / Cl / MRT0-∞ / Vd / t 1/2 / MRT0-t / AUC(0-inf) / clearance / MRT last / MRT inf / half-life: rat plasma, mean ± SD, n=3; for AUC(0-inf): read-out: AUC0-∞; for clearance: read-out: Cl (converted); for MRT last: read-out: MRT0-t; for MRT inf: read-out: MRT0-∞; for half-life: read-out: t 1/2 (converted)
# Method: The animal experiments were conducted in line with the Guide for the Care and Use of Laboratory Animals (published by the USA National Institutes of Health, NIH Publication no. 85-23, revised 1996), which were approved by the Animal Care and Use Committee of the College of Animal Science (College of Bee Science), Fujian Agriculture and Forestry University (Approval Number: […]2019004). […] All rats were acclimated to the facilities and environment for 7 days before the experiments. […] The gradient elution was carried out by the mobile phase water with 0.1% formic acid (A) and methanol (B). […] The column temperature and flow rate were at 35 °C and 0.5 ml/min, resepectively. 5 μl sample solution was injected for the HPLC-MS analysis. The electrospray ionization (ESI) source conditions were as follows: block heating temperature was kept at 400 °C; desolvation line temperature was set at 250 °C; dry gas (nitrogen) flow rate was kept at 15 L/min; and auxiliary gas (nitrogen) flow rate was 3 L/min. […] The plasma samples were separated by centrifugation, followed by storing at -20 °C before analysis. […] A DAS 3.0 software (Chinese Pharmacologic Society, Beijing, China) was used to calculate the noncompartmental PK parameters. All the results were presented as mean ± SD, and statistics analysis was done with a single-tailed Student's t test in the work.
# [3] = tested on: human umbilical vein endothelial cells; parameters: method as in Lin et al., 2017; Hu et al., 2018; details: ref Lin et al., 2017, Hu et al., 2018; cited from earlier work
# zebrafish model = tested on: zebrafish model; parameters: method as in Lin et al., 2017; Hu et al., 2018; details: ref Lin et al., 2017, Hu et al., 2018; cited from earlier work
# [4] = rat, in vivo; cited from earlier work
# [5] = extracted plasma samples, 10h in auto-sampler vials, high spiked level (HQC, 8000-16000 ng/mL)
# [6] = extracted plasma samples, 10h in auto-sampler vials, low spiked level (LQC, 5-30 ng/mL)
# [7] = extracted plasma samples, 10h in auto-sampler vials, middle spiked level (MQC, 400-1600 ng/mL)
# [8] = rat plasma, 6h at room temperature, high spiked level (HQC, 8000-16000 ng/mL)
# [9] = rat plasma, 6h at room temperature, low spiked level (LQC, 5-30 ng/mL)
# [10] = rat plasma, 6h at room temperature, middle spiked level (MQC, 400-1600 ng/mL)
# [11] = rat plasma, freeze-thaw stability (three cycles), high spiked level (HQC, 8000-16000 ng/mL)
# [12] = rat plasma, freeze-thaw stability (three cycles), low spiked level (LQC, 5-30 ng/mL)
# [13] = rat plasma, freeze-thaw stability (three cycles), middle spiked level (MQC, 400-1600 ng/mL)
# [14] = rat plasma, long-term stability (-80℃,15 days), high spiked level (HQC, 8000-16000 ng/mL)
# [15] = rat plasma, long-term stability (-80℃,15 days), low spiked level (LQC, 5-30 ng/mL)
# [16] = rat plasma, long-term stability (-80℃,15 days), middle spiked level (MQC, 400-1600 ng/mL)
# [17] = High group: single i.v. 3.52 ml/kg of 5 times concentrated ASEP
# [18] = Low group: single i.v. 1.76 ml/kg of 5 times concentrated ASEP
# [19] = male, Sprague-Dawley, rat, plasma, iv, 1.76 ml/kg, Low group: single i.v. 1.76 ml/kg of 5 times concentrated ASEP
# [20] = male, Sprague-Dawley, rat, plasma, iv, 3.52 ml/kg, High group: single i.v. 3.52 ml/kg of 5 times concentrated ASEP
"AUC0-∞ [2, 17]","AUC(0-t) [2, 17]","Cl [2, 17] [L/h]","MRT0-∞ [2, 17] [min]","AUC0-∞ [2, 18]","AUC(0-t) [2, 18]","Cl [2, 18] [L/h]",Structure (SMILES),"Stability, RE [1, 5] [%]","Stability, RE [1, 6] [%]","Stability, RE [1, 7] [%]","Stability, RE [1, 8] [%]","Stability, RE [1, 9] [%]","Stability, RE [1, 10] [%]","Stability, RE [1, 11] [%]","Stability, RE [1, 12] [%]","Stability, RE [1, 13] [%]","Stability, RE [1, 14] [%]","Stability, RE [1, 15] [%]","Stability, RE [1, 16] [%]",ingredient concentration in rat plasma [2] [ng/mL],other results
"3,161.48 ± 69.18 h·ng/ml","3,156.93 ± 68.74 h·ng/ml",0.80 ± 0.02,25.8 ± 0.6,"1,750.59 ± 64.24 h·ng/ml","1,747.89 ± 64.52 h·ng/ml",0.73 ± 0.03,O=C(/C=C/c1ccc(O)c(O)c1)OC1[C@H](O)CC(O)(C(=O)O)C[C@H]1O (stereo partly drawn) [4-CQA],-6.85,-16.89,14.39,-7.63,-6.42,9.60,-3.17,19.90,-0.64,-1.64,17.58,14.43,> 0.5,"Vd [2, 17]: 0.76 ± 0.02 L; t 1/2 [2, 17]: 39.6 ± 0.6 min; MRT0-t [2, 18]: 21.6 ± 0 min; MRT0-∞ [2, 18]: 22.2 ± 0 min; Vd [2, 18]: 0.98 ± 0.11 L; t 1/2 [2, 18]: 55.8 ± 4.8 min"
"4,013.66 ± 42.67 h·ng/ml","4,006.71 ± 42.76 h·ng/ml",0.86 ± 0.01,21 ± 0,"2,249.80 ± 109.69 h·ng/ml","2,244.68 ± 109.65 h·ng/ml",0.77 ± 0.04,"O=C(/C=C/c1ccc(O)c(O)c1)O[C@@H]1C[C@@](O)(C(=O)O)C[C@@H](O)[C@@H]1O [5-CQA, 5-caffeoylquinic acid]",–,–,–,–,–,–,–,–,–,–,–,–,–,"MRT0-t [2, 17]: 19.8 ± 0 min; MRT0-t [2, 18]: 26.4 ± 1.2 min; MRT0-∞ [2, 18]: 27.6 ± 1.2 min"
–,–,–,–,–,–,–,"O=C(O)c1ccc(O)c(O)c1 [PCA, protocatechuic acid]",-5.63,-2.62,-6.89,0.16,-6.60,-4.01,-0.14,-0.31,0.85,-10.60,-9.72,-3.16,> 0.5,"effect on VEGF-induced angiogenesis [3]: significant inhibitory effects; effect on VEGF-induced angiogenesis (zebrafish model): significant inhibitory effects; AUC(0-t) ([2]; male, Sprague-Dawley, rat, plasma, iv, 1.76 ml/kg, Low group: single i.v. 1.76 ml/kg of 5 times concentrated ASEP, read-out: AUC0-t): 202 ± 4.82 ng·h/mL; AUC(0-inf) [2, 19]: 204 ± 5.08 ng·h/mL; clearance [2, 19]: 96 mL/min; MRT last [2, 19]: 15 ± 0.6 min; MRT inf [2, 19]: 16.8 ± 1.2 min; Vd ([2]; male, Sprague-Dawley, rat, plasma, iv, 1.76 ml/kg, Low group: single i.v. 1.76 ml/kg of 5 times concentrated ASEP, read-out: Vd): 2.91 ± 0.07 L; half-life [2, 19]: 21 ± 0.6 min; AUC(0-t) ([2]; male, Sprague-Dawley, rat, plasma, iv, 3.52 ml/kg, High group: single i.v. 3.52 ml/kg of 5 times concentrated ASEP, read-out: AUC0-t): 308 ± 14.2 ng·h/mL; AUC(0-inf) [2, 20]: 310 ± 14.1 ng·h/mL; clearance [2, 20]: 126 mL/min; MRT last [2, 20]: 18 ± 0.6 min; MRT inf [2, 20]: 19.2 ± 0.6 min; Vd ([2]; male, Sprague-Dawley, rat, plasma, iv, 3.52 ml/kg, High group: single i.v. 3.52 ml/kg of 5 times concentrated ASEP, read-out: Vd): 4.39 ± 0.22 L; half-life [2, 20]: 24 min"
–,–,–,–,–,–,–,COc1cc2ccc(=O)oc2c(OC)c1O [isofraxidin],–,–,–,–,–,–,–,–,–,–,–,–,–,elimination in cerebral ischemia-reperfusion rats compared with the normal group [4]: changed
